Where two headings read alike, the source gives them in different places. Marks after values point to notes of the source that are not given here.
Legend:
Assay type in all cases: binding
[1] = target: T1, FTD patient brain-derived TDP-43 aggregates (Homo sapiens, UniProt Q13148); assay: Micro-radiobinding competition assay against [3H]-reference ligand; conditions: tritiated reference ligand at 25 nM; for Ki: 0.24 nM to 2 μM; for Human brain derived TDP-43 aggregates Mean % competition at 125 nM: compound at 125 nM; for Human brain derived TDP-43 aggregates Mean % competition at 1 μM: compound at 1 μM
T1 construct: A sample of brain tissue (frontal or temporal cortex) was homogenized; from tissue; host or cells: human FTD patient brain, frontal or temporal cortex, sarkosyl-insoluble fraction
T1 sequence (Q13148 whole entry): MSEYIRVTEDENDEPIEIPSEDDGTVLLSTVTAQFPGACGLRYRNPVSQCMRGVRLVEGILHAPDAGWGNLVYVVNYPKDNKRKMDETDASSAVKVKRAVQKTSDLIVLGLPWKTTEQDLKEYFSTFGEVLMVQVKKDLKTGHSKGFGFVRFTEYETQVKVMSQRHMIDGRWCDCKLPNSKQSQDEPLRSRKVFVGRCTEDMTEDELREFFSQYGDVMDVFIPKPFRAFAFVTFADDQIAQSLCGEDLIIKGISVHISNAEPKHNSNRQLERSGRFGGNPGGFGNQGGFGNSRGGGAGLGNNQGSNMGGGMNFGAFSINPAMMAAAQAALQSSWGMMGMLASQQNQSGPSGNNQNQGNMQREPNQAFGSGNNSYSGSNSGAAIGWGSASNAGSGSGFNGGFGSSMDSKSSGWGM
Description: (§1) Human brain extracts were prepared as described in Laferriere et al., 2019, Nature Neurosc. A sample of brain tissue (frontal or temporal cortex) was homogenized at 1:4 (w/v) ratio in the homogenization-solubilization (HS) buffer at 4° C. using tissue homogenizer (Precellys) with CKmix homogenization tubes. The following sequence was used for homogenization: 3 cycles of 30 seconds at 5000 rpm (with 15 seconds pause between each cycle). Homogenized samples were aliquoted and stored at −80° C. in 1.5 mL low protein binding tubes.
(§2) Brain homogenates were thawed on ice and resuspended in HS buffer to obtain a final concentration of 2% sarkosyl, 1 unit/μL Benzonase and 1 mM MgCl2. The samples were then incubated at 37° C. under constant shaking at 600 rpm on a thermomixer for 45 minutes (min). The supernatants were collected in a new tube (sarkosyl-soluble fraction, S1). The pellet was resuspended in 1000 μL of myelin floatation buffer and centrifuged at 20,000 g for 60 min at 4° C. The supernatant was carefully removed to remove all the floating lipids. This step was repeated if all the lipids could not be removed in a single step. The pellet was subsequently washed with Phosphate-Buffered Saline (PBS) and centrifuged for 30 min at 20,000 g at 4° C. The final pellet was resuspended in 200 μL PBS and stored at −80° C. (sarkosyl-insoluble fraction). The samples were analyzed by immunoblotting in denaturing conditions.
(§3) Human FTD sarkosyl-insoluble brain extracts were spotted onto microarray slides. Three batches of extracts were used. The slides were incubated with a tritiated reference ligand at 25 nM or with tritiated Compound 1 ([^3H]-Compound 1) at 40 nM or 50 nM depending on the batch used. The example compounds (non-radiolabeled) were used at 1 μM and 125 nM (or 1 μM and 100 nM for compound 15). In some cases, the non-radiolabeled example compounds were further assessed for a range of different concentrations, varying from 0.24 nM to 2 μM for determination of the inhibition constant (Ki). After incubation, slides were washed and scanned by a real-time autoradiography system (BeaQuant, ai4R). Quantification of the signal was performed by using the Beamage image analysis software (ai4R). Non-specific signal was determined with an excess of non-radiolabeled reference compound (2 μM) and specific binding was calculated by subtracting the non-specific signal from the total signal. Competition was calculated as percent, where 0% was defined as the specific binding in the presence of vehicle and 100% as the values obtained in the presence of excess of the non-radiolabeled reference compound. Ki values were calculated in GraphPad Prism8 by applying a nonlinear regression curve fit using a one site, specific binding model. Measurements were performed with at least two technical replicates in the two-concentration competition experiment and with one technical replicate in the experiments including a range of concentrations. For compounds tested in more than one experiment, the mean of the replicates or K; values in independent experiments is reported.
Results: Example compounds 1 to 10 were assessed for their potency to compete with the binding of [^3H]-reference ligand to FTD patient brain-derived TDP-43 aggregates. Results of the micro-radiobinding competition assay for the example compounds are shown in Table 2 below as: % competition at 1 μM and 125 nM.

[2] = target: T2, TDP-43 aggregates in human FTD sarkosyl-insoluble brain extracts (Homo sapiens, UniProt Q13148); assay: Kd determination with micro-radiobinding (saturation) assay on human FTD sarkosyl insoluble brain extract
T2 construct: A sample of brain tissue (frontal or temporal cortex) was homogenized; from tissue; host or cells: human FTD patient brain, frontal or temporal cortex, sarkosyl-insoluble fraction
T2 sequence (Q13148 whole entry): as above
Description: as §1, §2
2.1 Kd Determination on Human FTD Sarkosyl Insoluble Brain Extract with Micro-Radiobinding Assay of [^3H]-Compound 1, 4, 8, 11, 12
Human FTD sarkosyl-insoluble brain extracts were spotted onto microarray slides. The slides were incubated with [^3H]-Compound 1, [^3H]-Compound 4, [^3H]-Compound 8, [^3H]-Compound 11, or [^3H]-Compound 12 respectively, in a range of concentrations, varying from 1.93 to 300 nM. After incubation, slides were washed and scanned by a real-time autoradiography system (BeaQuant, ai4R). Quantification of the signal was performed by using the Beamage image analysis software (ai4R). Non-specific signal was determined with an excess of non-radiolabelled compound 1, 4, 8, 11 or 12 (2 μM), respectively, and specific binding was calculated by subtracting the non-specific signal from the total signal.
The Kd (Dissociation constant) and R^2 (parameter ranging between 0.0 and 1.0 that quantifies the goodness of fit, and the best curve fit obtained with value of 1.0) were obtained by fitting the specific binding data with non-linear regression analysis, using a one-site specific binding model in GraphPad Prism8.

[3] = target: T3, Human brain derived TDP-43 aggregates (Homo sapiens, UniProt Q13148); assay: Micro-radiobinding competition assay against [3H]-Compound 1; conditions: for Ki: 0.24 nM to 2 μM; for Ki / Human brain derived TDP-43 aggregates Mean % competition at 1 μM: [3H]-Compound 1 at 50 nM (40 nM for compound 15); for Human brain derived TDP-43 aggregates Mean % competition at 125 nM: compound at 125 nM, [3H]-Compound 1 at 50 nM; for Human brain derived TDP-43 aggregates Mean % competition at 1 μM: compound at 1 μM
T3 construct: A sample of brain tissue (frontal or temporal cortex) was homogenized; from tissue; host or cells: human FTD patient brain, frontal or temporal cortex, sarkosyl-insoluble fraction
T3 sequence (Q13148 whole entry): as above
Description: as §1, §2, §3
Example compounds 11 to 15 were assessed for their potency to compete with the binding of [^3H]-Compound 1 on two different batches of brain extracts. Results of the micro-radiobinding competition assay for the example compounds are shown in Table 3 below as: % competition at 1 μM and 125 nM (with Compound 1 at 50 nM) for compounds 11 to 14, or % competition at 1 μM and 100 nM (with Compound 1 at 40 nM) for compound 15 respectively.

[4] = tritiated compound 1.93 to 300 nM on human FTD sarkosyl-insoluble brain extracts, one-site specific binding fit, read-out: Kd (dissociation constant)
[5] = different batch of FTD sarkosyl-insoluble brain extracts, read-out: Kd (dissociation constant)

Ki [1] [nM]	Human brain derived TDP-43 aggregates Mean % competition at 125 nM [1] [%]	Human brain derived TDP-43 aggregates Mean % competition at 1 μM [1] [%]	SMILES	other results
105	63	102	O=C(Nc1ccc(F)nc1)c1cnc(-c2ccc(N3CC[C@@H](F)C3)nc2)s1 [Compound 1, (R)—N-(6-fluoropyridin-3-yl)-2-(6-(3-fluoropyrrolidin-1-yl)pyridin-3-yl)thiazole-5-carboxamide]	
223	53	70	O=C(Nc1cnc(F)cn1)c1cnc(-c2ccc(N3CC[C@@H](F)C3)nc2)s1 [Compound 5]	
63	52	80	Nc1cc(NC(=O)c2cnc(-c3ccc(N4CC[C@H](F)C4)nc3)s2)ccc1F [Compound 7]	
			O=C(Nc1cncc(F)c1)c1cnc(-c2ccc(N3CC[C@@H](F)C3)nc2)s1 [[^3H]-Compound 11, tritiated (R)—N-(5-fluoropyridin-3-yl)-2-(6-(3-fluoropyrrolidin-1-yl)pyridin-3-yl)thiazole-5-carboxamide]	Kd [2, 4]: 80 nM
			O=C(Nc1cnsc1)c1cnc(-c2ccc(N3CC[C@@H](F)C3)nc2)s1 [[^3H]-Compound 4, tritiated (R)-2-(6-(3-fluoropyrrolidin-1-yl)pyridin-3-yl)-N-(isothiazol-4-yl)thiazole-5-carboxamide]	Kd [2, 5]: 51 nM
71	54	70	O=C(Nc1ccc(F)nc1)c1cnc(-c2ccc(N3CC[C@@H](F)C3)cc2)s1 [Compound 10]	
82	60	83	O=C(Nc1ccncc1)c1cnc(-c2cnc(N3CC[C@@H](F)C3)cn2)s1 [Compound 9]	
89	46	83	O=C(Nc1cnc(F)nc1)c1cnc(-c2ccc(N3CC[C@@H](F)C3)nc2)s1 [Compound 6]	
			O=C(Nc1cncc(F)c1)c1sc(-c2ccc(N3CC[C@@H](F)C3)nc2)nc1F [[^3H]-Compound 12]	Kd [2, 4]: 67 nM
			O=C(Nc1cncnc1)c1sc(-c2ccc(N3CC[C@@H](F)C3)nc2)nc1F [Compound 14]	Ki [3]: 153 nM; Human brain derived TDP-43 aggregates Mean % competition at 125 nM [3]: 38%; Human brain derived TDP-43 aggregates Mean % competition at 1 μM [3]: 77%
			O=C(Nc1ccc(F)nc1)c1cnc(-c2ccc(N3CC[C@@H](F)C3)nc2)s1 [[^3H]-Compound 1]	Kd ([2]; data from two independent experiments, human FTD sarkosyl-insoluble brain extracts, read-out: average Kd): 53 ± 10 nM; specific binding ([2]; human FTD sarkosyl insoluble brain extracts, result in words): high specific binding; Kd [2, 4]: 52 nM
			O=C(Nc1ccc(F)nc1)c1sc(-c2ccc(N3CC[C@@H](F)C3)nc2)nc1F [Compound 13, (R)-4-fluoro-N-(6-fluoropyridin-3-yl)-2-(6-(3-fluoropyrrolidin-1-yl)pyridin-3-yl)thiazole-5-carboxamide]	Ki [3]: 107 nM; Human brain derived TDP-43 aggregates Mean % competition at 125 nM [3]: 42%; Human brain derived TDP-43 aggregates Mean % competition at 1 μM [3]: 75%
			O=C(Nc1cncc(F)c1)c1sc(-c2ccc(N3CC[C@@H](F)C3)nc2)nc1F [Compound 12, (R)-4-fluoro-N-(5-fluoropyridin-3-yl)-2-(6-(3-fluoropyrrolidin-1-yl)pyridin-3-yl)thiazole-5-carboxamide]	Ki [3]: 213 nM; Human brain derived TDP-43 aggregates Mean % competition at 125 nM [3]: 43%; Human brain derived TDP-43 aggregates Mean % competition at 1 μM [3]: 50%
			O=C(Nc1cncc(F)c1)c1cnc(-c2ccc(N3CC[C@@H](F)C3)nc2)s1 [Compound 11, (R)—N-(5-fluoropyridin-3-yl)-2-(6-(3-fluoropyrrolidin-1-yl)pyridin-3-yl)thiazole-5-carboxamide]	Ki [3]: 50 nM; Human brain derived TDP-43 aggregates Mean % competition at 125 nM [3]: 65%; Human brain derived TDP-43 aggregates Mean % competition at 1 μM [3]: 80%
			O=C(Nc1cnsc1)c1sc(-c2ccc(N3CC[C@@H](F)C3)nc2)nc1F [Compound 15]	Ki [3]: 10 nM; Mean % competition at 100 nM ([3]; compound at 100 nM, [3H]-Compound 1 at 40 nM): 47* %; Human brain derived TDP-43 aggregates Mean % competition at 1 μM [3]: 92%
			O=C(Nc1ccncc1)c1cnc(-c2cnc(N3CC[C@H](F)C3)nc2)s1 [[^3H]-Compound 8, tritiated (S)-2-(2-(3-fluoropyrrolidin-1-yl)pyrimidin-5-yl)-N-(pyridin-4-yl)thiazole-5-carboxamide]	Kd [2, 5]: 75 nM
75	47	78	O=C(Nc1ccncc1)c1cnc(-c2cnc(N3CC[C@H](F)C3)nc2)s1 [Compound 8, (S)-2-(2-(3-fluoropyrrolidin-1-yl)pyrimidin-5-yl)-N-(pyridin-4-yl)thiazole-5-carboxamide]	
116	60	94	O=C(Nc1cnsc1)c1cnc(-c2ccc(N3CC[C@@H](F)C3)nc2)s1 [Compound 4, (R)-2-(6-(3-fluoropyrrolidin-1-yl)pyridin-3-yl)-N-(isothiazol-4-yl)thiazole-5-carboxamide]	

From patent US20260167636A1, “NOVEL COMPOUNDS FOR THE DIAGNOSIS OF TDP-43 PROTEINOPATHIES” (AC IMMUNE SA, priority 2022, published 2026)
